Measurements as given in USRE39921E1, “Chemical compounds” (SmithKline Beecham Corporation, priority 1999, dated 2007).
Counter-ions that a name gives are not always drawn.

Key:
[1] = target: T1, recombinant human NK1 receptors (Homo sapiens, UniProt P25103); assay: NK1-receptor binding affinity: displacement of [3H]-substance P from CHO cell membranes; conditions: average of at least two determinations, [3H]-substance P displacement, read-out: pki (negative logarithm of the inhibition constant Ki of displacer ligands) (converted)
T1 construct: expressed in transfected cells; host or cells: Chinese Hamster Ovary (CHO) cells, membrane preparation
Experimental: Thus ligand binding was performed in 0.4 ml of 50 mM HEPES, pH 7.4, containing 3 mM MnCl2, 0.02% BSA, 0.5 nM [^3H]Substance P (30+56 Ci/mmol, Amersham), a final membrane concentration of 25 μg of protein/ml, and the test compounds. The incubation proceeded at room temperature for 40 min.
The affinity of the compound of the invention for NK1 receptor was determined using the NK1-receptor binding affinity method measuring in vitro by the compounds' ability to displace [3H]—substance P (SP) from recombinant human NK1 receptors expressed in Chinese Hamster Ovary (CHO) cell membranes. The affinity values are expressed as negative logarithm of the inhibition constant (Ki) of displacer ligands (pKi).

nk1 receptor = target: T2, nk1 receptor (Meriones unguiculatus, UniProt Q5DUB1); assay: gerbil foot tapping model (hind foot tapping induced by icv NK1 agonist); type: in vivo; conditions: oral administration, one hour before icv NK1 agonist; dose inhibiting tapping by 50%
T2 construct: from tissue; host or cells: living gerbil, central NK1 receptors (agonist infused icv)
Experimental: The action of the compounds of the invention at the NK1 receptor may be determined by using conventional tests. Thus the ability to bind at the NK1 receptor was determined using the gerbil foot tapping model as described by Rupniak & Williams, Eur. J. of Pharmacol., 1994.
The ability of the compounds of the invention at the nk1 receptor may be determined using the gerbil foot tapping model as described by Rupniak & Williams, Eur. Jour. of Pharmacol., 1994.
The compound was administered orally and one hour later an NK1 agonist (e.g. delta-Aminovaleryl^6[Pro^9,Me-Leu^10]-substance P (7-11)) (3 pmol in 5 μL, icv) was infused directly in the cerebral ventricules of the animals. The duration of hind foot tapping induced by the NK1 agonist (e.g. delta-Aminovaleryl^6[Pro^9,Me-Leu^10]-substance P (7-11)) was recorded continuously for 3 min using a stopclock. […] Alternatively the compounds may be administered subcutaneously or intraperitoneally.

T2 sequence (Q5DUB1 whole entry, the tested form may be a part): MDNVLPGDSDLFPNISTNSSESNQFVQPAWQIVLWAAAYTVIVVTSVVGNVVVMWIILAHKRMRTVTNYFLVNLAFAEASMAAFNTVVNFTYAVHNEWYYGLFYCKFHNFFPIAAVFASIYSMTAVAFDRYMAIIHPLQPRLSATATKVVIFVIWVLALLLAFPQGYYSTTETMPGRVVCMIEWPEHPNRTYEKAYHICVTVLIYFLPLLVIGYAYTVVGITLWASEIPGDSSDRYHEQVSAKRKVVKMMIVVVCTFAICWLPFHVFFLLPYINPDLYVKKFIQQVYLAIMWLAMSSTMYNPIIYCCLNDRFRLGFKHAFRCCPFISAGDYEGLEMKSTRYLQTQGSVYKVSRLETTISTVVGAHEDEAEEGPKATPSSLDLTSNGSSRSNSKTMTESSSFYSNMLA
T1 sequence (P25103 whole entry): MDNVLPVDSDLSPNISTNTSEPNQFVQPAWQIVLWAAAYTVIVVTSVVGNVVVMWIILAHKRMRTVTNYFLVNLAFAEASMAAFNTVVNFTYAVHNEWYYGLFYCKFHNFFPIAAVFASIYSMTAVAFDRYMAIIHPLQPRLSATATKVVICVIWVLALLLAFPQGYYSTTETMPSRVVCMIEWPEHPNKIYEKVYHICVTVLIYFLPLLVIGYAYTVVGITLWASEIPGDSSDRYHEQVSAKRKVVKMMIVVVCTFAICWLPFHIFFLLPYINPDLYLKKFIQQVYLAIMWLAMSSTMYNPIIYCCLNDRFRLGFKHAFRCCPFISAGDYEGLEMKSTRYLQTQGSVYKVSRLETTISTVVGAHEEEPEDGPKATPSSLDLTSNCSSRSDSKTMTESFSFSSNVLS

melting point [°C] | Ki [1] [nM] | ED50(mg/kg po) (nk1 receptor) [mg/kg] | Compound
77 to 80 | – | – | CC(C)c1cccc(C2CNCCN2C(=O)N(C)Cc2cc(C(F)(F)F)cc(C(F)(F)F)c2)c1.Cl (stereo not drawn)
– | 0.49 | – | Cc1cc(F)ccc1C1CNCCN1C(=O)N1CC=CCC1c1cc(C(F)(F)F)cc(C(F)(F)F)c1 (single isomer, unassigned) [Example 28, hydrochloride]
– | 1.35 | – | Cc1cc(F)ccc1[C@H]1CNCCN1C(=O)N1CCCCC1c1cc(C(F)(F)F)cc(C(F)(F)F)c1 (single isomer, unassigned) [Example 29, hydrochloride]
– | 1.66 | – | C=CCC(c1cc(C(F)(F)F)cc(C(F)(F)F)c1)N(C)C(=O)N1CCNCC1c1ccc(F)cc1C (single isomer, unassigned) [Example 30, 2-(4-Fluoro-2-methyl-phenyl)-piperazine-1-carboxylic acid [1-(3,5-bis-trifluoromethyl-phenyl)-but-3-enyl]-methyl-amide hydrochloride]
– | 1.02 | – | Cc1cc(F)ccc1C1CNCCN1C(=O)N(C)C(c1cc(C(F)(F)F)cc(C(F)(F)F)c1)C(C)C (single isomer, unassigned) [Example 32, 2-(4-Fluoro-2-methyl-phenyl)-piperazine-1-carboxylic acid [1-(3,5-bis-trifluoromethyl-phenyl)-2-methyl-propyl]-methyl-amide hydrochloride]
– | 0.794 | – | Cc1cc(F)ccc1C1CNCCN1C(=O)N(C)C(c1cc(C(F)(F)F)cc(C(F)(F)F)c1)C1CC1 (single isomer, unassigned) [Example 34, 2(4-Fluoro-2-methyl-phenyl)-piperazine-1-carboxylic acid [(3,5-bis-trifluoromethyl-phenyl)-cyclopropyl-methyl]-methyl-amide hydrochloride]
> 220 | 1.07 | – | Cc1cc(F)ccc1C1CNCCN1C(=O)N(C)Cc1cc(C(F)(F)F)cc(C(F)(F)F)c1.Cl (stereo not drawn) [Example 1, 2-(4-Fluoro-2-methyl-phenyl)-piperazine-1carboxylic acid (3,5-bistrifluoromethyl-benzyl)-methyl-amide hydrochloride]
70 to 72 | 4.37 | – | Cc1cc(C2CNCCN2C(=O)N(C)Cc2cc(C(F)(F)F)cc(C(F)(F)F)c2)ccc1F.Cl (stereo not drawn) [Example 4, 2(4-Fluoro-3-methyl-phenyl)-piperazine-1-carboxylic acid (3,5-bis-trifluoromethyl-benzyl)-methyl-amide hydrochloride]
220 to 230 | 2.14 | – | CN(Cc1cc(C(F)(F)F)cc(C(F)(F)F)c1)C(=O)N1CCNCC1c1ccc(F)cc1F.Cl (stereo not drawn) [Example 5, 2-(2,4-Difluoro-phenyl)-piperazine-1-carboxylic acid (3,5-bis-trifluoromethyl-benzyl)-methyl-amide hydrochloride]
– | 0.427 | – | Cc1cc(F)ccc1[C@H]1CNCCN1C(=O)N(C)Cc1cc(C(F)(F)F)cc(C(F)(F)F)c1 [Example 8, (−)-2-(S)-(4-Fluoro-2-methyl-phenyl)-piperazine-1-carboxylic acid (3,5-bis-trifluoromethyl-benzyl)-methyl-amide hydrochloride]
– | 2 | – | CN(Cc1cc(C(F)(F)F)cc(C(F)(F)F)c1)C(=O)N1CCNCC1c1ccc(F)cc1 (stereo not drawn) [Example 12, hydrochloride]
> 200 | – | – | CN(Cc1ccc(C(F)(F)F)c(C(F)(F)F)c1)C(=O)N1CCNCC1c1ccc(F)cc1.Cl (stereo not drawn) [Example 12]
– | 2 | – | CN(Cc1cc(C(F)(F)F)cc(C(F)(F)F)c1)C(=O)N1CCNCC1c1ccc(Cl)cc1Cl (stereo not drawn) [Example 14, 2-(2,4-Dichloro-phenyl)-piperazine-1-carboxylic acid (3,5-bistrifluoro methyl-benzyl)-methyl-amide hydrochloride]
– | – | 0.04 | CC(=O)O.Cc1cc(F)ccc1[C@H]1CNCCN1C(=O)N(C)[C@@H](C)c1cc(C(F)(F)F)cc(C(F)(F)F)c1 [Example 19, 2-(S)-(4-Fluoro-2-methyl-phenyl)-piperazine-1-carboxylic acid [1-(S)-(3,5-bis-trifluoromethyl-phenyl)-ethyl]-methyl-amide acetate]
– | 0.347 | 0.065 | Cc1cc(F)ccc1[C@H]1CN(C(=O)CN)CCN1C(=O)N(C)Cc1cc(C(F)(F)F)cc(C(F)(F)F)c1.Cl [Example 20, 4-(2-Amino-acetyl)-2-(S)-(4-fluoro-2-methyl-phenyl)-piperazine-1-carboxylic acid (3,5-bis-trifluoromethyl-benzyl)-methyl-amide hydrochloride]
– | 1.12 | 0.4 | Cc1cc(F)ccc1[C@H]1CNCCN1C(=O)N(C)C(C)(C)c1cc(C(F)(F)F)cc(C(F)(F)F)c1.Cl [Example 21, 2-(S)-(4-Fluoro-2-methyl-phenyl)-piperazine-1-carboxylic acid [1-(3,5-bis-trifluoromethyl-phenyl)-1-methyl-ethyl]-methyl-amide hydrochloride]
– | 0.407 | – | Cc1cc(F)ccc1[C@H]1CN(CCN)CCN1C(=O)N(C)Cc1cc(C(F)(F)F)cc(C(F)(F)F)c1 [Example 22, 4(2-Aminoethyl)-2-(S)-(4-fluoro-2-methyl-phenyl)-piperazine-1-carboxylic acid (3,5-bis-trifluoromethyl-benzyl)-methyl-amide dihydrochloride Salt]
– | 0.479 | – | Cc1cc(F)ccc1C1C(C)NCCN1C(=O)N(C)Cc1cc(C(F)(F)F)cc(C(F)(F)F)c1 (stereo not drawn) [Example 23, 2-(4-Fluoro-2-methyl-phenyl)-3-methyl-piperazine-1-carboxylic acid (3,5-bis-trifluoromethyl-benzyl)-methyl-amide hydrochloride salt]
> 200 | 0.661 | – | Cc1cc(F)ccc1C1CNCC(C)N1C(=O)N(C)Cc1cc(C(F)(F)F)cc(C(F)(F)F)c1.Cl (stereo not drawn) [Example 24, 2-(2-Methyl-4-fluoro-phenyl)-6-methyl-piperazine-1-carboxylic acid (3,5-bis-trifluoromethyl-benzyl)-methyl-amide hydrochloride salt]
– | 0.479 | – | Cc1cc(F)ccc1[C@H]1CNCCN1C(=O)N(C)C1(c2cc(C(F)(F)F)cc(C(F)(F)F)c2)CC1 [Example 25, 2-(S)-(4-Fluoro-2-methyl-phenyl)-piperazine-1-carboxylic acid [1-3,5-bis-trifluoromethyl-phenyl)-cyclopropyl]-methyl-amide hydrochloride]
– | – | 0.05 | CS(=O)(=O)O.Cc1cc(F)ccc1[C@H]1CNCCN1C(=O)N(C)[C@H](C)c1cc(C(F)(F)F)cc(C(F)(F)F)c1 [Example 36, 2(S)-(4-Fluoro-2-methyl-phenyl)-piperazine-1-carboxylic acid [1-(R)-(3,5-bis-trifluoromethyl-phenyl)-ethyl]-methyl-amide methansulphonate]
